# In patent US20230062119A1, “USE OF BIOMARKERS IN IDENTIFYING PATIENTS THAT WILL BE RESPONSIVE TO TREATMENT WITH A PRMT5 INHIBITOR” (Merck Sharp & Dohme LLC, priority 2019, published 2023):
# Structures can show the parent of a compound that is named as a salt. Where two headings read alike, the source gives them in different places.
# Molecular target: T1, Full-length (FL)-PRMT5-MEP50 enzyme complex (Homo sapiens, UniProt O14744)
# T1 construct: Full-length (FL)-PRMT5-MEP50 enzyme complex (recombinant proteins from baculovirus-transfected Sf21 cells: FL-PRMT5; MW=73837 kDa and FL-MEP50; MW=38614); made in house; host or cells: baculovirus-transfected Sf21 insect cells
# Assay: PRMT5-MEP50 Enzyme Methylation Assay
# Format: biochemical
# Settings: 1.0 nM PRMT5-MEP50, 75 nM biotinylated peptide, 15 μM SAM
# Protocol: PRMT5-MEP50 biochemical assay is a direct measurement of the methylation activity of the enzyme complex on a short peptide substrate derived from the N-terminus of H4 histone. Methylation experiment is performed with recombinant PRMT5-MEP50 protein complex. The assessment of inhibitory effect of small molecules is measured by the effectiveness of the compounds to inhibit this reaction (EC50).
# In this assay, the potency (EC50) of each compound was determined from a twenty-point (1:2 serial dilution; top compound concentration of 100000 nM) titration curve using the following outlined procedure. To each well of a white ProxiPlus 384 well-plate, 100 nL of compound (1% DMSO in final assay volume of 10 μL) was dispensed, followed by the addition of 8 μL of 1× assay buffer (50 mM Bicine pH 8.0, 1 mM DTT, 0.004% Tween20, 0.01% BSA) containing 1.25 nM of Full-length (FL)-PRMT5-MEP50 enzyme complex (recombinant proteins from baculovirus-transfected Sf21 cells: FL-PRMT5; MW=[…] and FL-MEP50; MW=38614) and 1 μL of 150 μM S-(5′-Adenosyl)-L-Methionine Chloride (SAM). Plates were sealed and placed in a 37° C. humidified chamber for a 60 minutes pre-incubation with compound. Subsequently, each reaction was initiated by the addition of 1 μL 1× assay buffer containing 750 nM biotinylated H4R3(Mel) peptide. The final reaction in each well of 10 μL consists of 1.0 nM PRMT5-MEP50, 75 nM biotinylated-peptide, and 15 μM SAM. Methylation reactions proceeded for 150 minutes in a sealed plate at 37° C. Reactions were immediately quenched by the addition of 1 μL of 5% formic acid. Plates were then frozen and shipped to SAMDI™ Tech Inc. to determine the percent conversion from H4R3(Mel) to H4R3(Me2). Dose-response curves were generated by plotting percent effect (% product conversion; Y-axis) vs. Log 10 compound concentrations (X-axis). EC50 values were determined by non-linear regression according to models for either sigmoidal (4 parameters) or biphasic (7 parameters) dose-response curves.
# [1] = one EC50: 4 parameters single site sigmoidal model, EC50 1: first value of 7 parameters biphasic model, read-out: Enzyme Methylation Assay (EC50 or EC50 1)
# T1 sequence (O14744 whole entry): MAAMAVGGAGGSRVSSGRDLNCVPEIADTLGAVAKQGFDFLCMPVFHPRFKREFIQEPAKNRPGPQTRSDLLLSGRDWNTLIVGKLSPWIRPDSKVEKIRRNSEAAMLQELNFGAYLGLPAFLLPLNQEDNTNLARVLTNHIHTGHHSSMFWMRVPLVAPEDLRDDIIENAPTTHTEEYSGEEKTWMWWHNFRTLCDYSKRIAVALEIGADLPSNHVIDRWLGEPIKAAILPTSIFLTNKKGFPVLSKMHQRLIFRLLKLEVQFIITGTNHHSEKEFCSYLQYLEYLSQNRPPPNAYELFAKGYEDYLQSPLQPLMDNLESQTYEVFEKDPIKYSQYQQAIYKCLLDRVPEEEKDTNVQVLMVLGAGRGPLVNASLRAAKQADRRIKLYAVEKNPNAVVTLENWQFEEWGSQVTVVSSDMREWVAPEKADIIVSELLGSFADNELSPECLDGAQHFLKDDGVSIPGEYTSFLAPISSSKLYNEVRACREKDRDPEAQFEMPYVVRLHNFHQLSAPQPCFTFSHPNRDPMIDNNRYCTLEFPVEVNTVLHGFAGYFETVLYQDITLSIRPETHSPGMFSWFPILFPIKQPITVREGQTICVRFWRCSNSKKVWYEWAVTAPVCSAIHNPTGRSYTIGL
# T1 sequence (Q9BQA1 whole entry partner): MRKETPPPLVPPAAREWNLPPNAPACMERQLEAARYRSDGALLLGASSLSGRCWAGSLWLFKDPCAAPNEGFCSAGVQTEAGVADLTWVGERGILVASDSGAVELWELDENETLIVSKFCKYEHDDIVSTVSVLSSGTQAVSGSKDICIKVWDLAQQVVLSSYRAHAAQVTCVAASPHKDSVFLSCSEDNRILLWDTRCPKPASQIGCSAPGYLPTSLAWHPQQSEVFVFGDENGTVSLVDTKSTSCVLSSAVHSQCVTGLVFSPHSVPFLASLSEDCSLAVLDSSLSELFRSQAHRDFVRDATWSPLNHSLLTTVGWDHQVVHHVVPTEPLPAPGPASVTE
EC50 [1] [nM],"EC50 (second EC50 of 7 parameters biphasic model, read-out: Enzyme Methylation Assay (EC50 2)) [nM]",Structure (SMILES)
0.4,,"Cc1ncnc2c1ccn2[C@@H]1O[C@@H]2[C@H](Cc3ccc4cc(C(F)F)c(N)nc4c3)CC[C@]2(O)[C@H]1O [Example 23, (2R,3R,3aS,6S,6aR)-6-((2-amino-3-(difluoromethyl)quinolin-7-yl)methyl)-2-(4-methyl-7H-pyrrolo[2,3-d]pyrimidin-7-yl)hexahydro-3aH-cyclopenta[b]furan-3,3a-diol]"
0.4,,"Nc1nc2cc(C[C@@H]3CC[C@@]4(O)[C@@H]3O[C@@H](n3cc(F)c5c(N)ncnc53)[C@@H]4O)cc(F)c2cc1F [Example 24, (2R,3R,3aS,6S,6aR)-6-((2-amino-3,5-difluoroquinolin-7-yl)methyl)-2-(4-amino-5-fluoro-7H-pyrrolo[2,3-d]pyrimidin-7-yl)hexahydro-3aH-cyclopenta[b]furan-3,3a-diol]"
0.8,,"Nc1nc2nc(C[C@@H]3CC[C@@]4(O)[C@@H]3O[C@@H](n3ccc5c(N)ncnc53)[C@@H]4O)ccc2cc1Cl [Example 28, (2R,3R,3aS,6S,6aR)-6-((7-amino-6-chloro-1,8-naphthyridin-2-yl)methyl)-2-(4-amino-7H-pyrrolo[2,3-d]pyrimidin-7-yl)hexahydro-3aH-cyclopenta[b]furan-3,3a-diol trihydrochloride]"
0.5,,"Cc1cn([C@@H]2C[C@@H]3[C@H](Cc4cc(F)c5cc(Cl)c(N)nc5c4)CC[C@]3(O)[C@H]2O)c2ncnc(N)c12 [Example 36, (1S,2R,3aR,4S,6aR)-4-[(2-amino-3-chloro-5-fluoroquinolin-7-yl)methyl]-2-(4-amino-5-methyl-7H-pyrrolo[2,3-d]pyrimidin-7-yl)hexahydropentalene-1,6a(1H)-diol]"
0.3,,"Cc1nc(N)c2ccn([C@@H]3C[C@@H]4[C@H](Cc5ccc6cc(Br)c(N)nc6c5)CC[C@]4(O)[C@H]3O)c2n1 [Example 37, (1S,2R,3aR,4S,6aR)-2-(4-amino-2-methyl-7H-pyrrolo[2,3-d]pyrimidin-7-yl)-4-((2-amino-3-bromoquinolin-7-yl)methyl)hexahydropentalene-1,6a(1H)-diol]"
0.4,,"Cc1cn([C@@H]2C[C@@H]3[C@H](Cc4ccc5cc(Br)c(N)nc5c4)CC[C@]3(O)[C@H]2O)c2ncnc(N)c12 [Example 40, (1S,2R,3aR,4S,6aR)-4-((2-amino-3-bromoquinolin-7-yl)methyl)-2-(4-amino-5-methyl-7H-pyrrolo[2,3-d]pyrimidin-7-yl)hexahydropentalene-1,6a(1H)-diol]"

# Continued, compound first:
Structure (SMILES),EC50 [1] [nM],"EC50 (second EC50 of 7 parameters biphasic model, read-out: Enzyme Methylation Assay (EC50 2)) [nM]"
"Cc1ncnc2c1ccn2[C@@H]1O[C@@H]2[C@H](Cc3cnc4cc(F)c(N)nc4c3)CC[C@]2(O)[C@H]1O [Example 25, (2R,3R,3aS,6S,6aR)-6-((6-amino-7-fluoro-1,5-naphthyridin-3-yl)methyl)-2-(4-methyl-7H-pyrrolo[2,3-d]pyrimidin-7-yl)hexahydro-3aH-cyclopenta[b]furan-3,3a-diol, 3HCl]",11,8910
"Nc1nc2c(F)c(C[C@@H]3CC[C@@]4(O)[C@@H]3O[C@@H](n3ccc5c(N)ncnc53)[C@@H]4O)ccc2cc1Cl [Example 26, (2R,3R,3aS,6S,6aR)-6-((2-amino-3-chloro-8-fluoroquinolin-7-yl)methyl)-2-(4-amino-7H-pyrrolo[2,3-d]pyrimidin-7-yl)hexahydro-3aH-cyclopenta[b]furan-3,3a-diol]",1.1,
"Nc1nc2cc(C[C@@H]3CC[C@@]4(O)[C@@H]3O[C@@H](n3ccc5c(N)ncnc53)[C@@H]4O)c(F)cc2cc1F [Example 27, (2R,3R,3aS,6S,6aR)-6-[(2-amino-3,6-difluoroquinolin-7-yl)methyl]-2-(4-amino-7H-pyrrolo[2,3-d]pyrimidin-7-yl)hexahydro-3aH-cyclopenta[b]furan-3,3a-diol]",0.4,
"Nc1nc2cc(C[C@@H]3CC[C@@]4(O)[C@@H]3O[C@@H](n3ccc5c(N)ncnc53)[C@@H]4O)cc(F)c2cc1F [Example 29, (2R,3R,3aS,6S,6aR)-6-[(2-amino-3,5-difluoroquinolin-7-yl)methyl]-2-(4-amino-7H-pyrrolo[2,3-d]pyrimidin-7-yl)hexahydro-3aH-cyclopenta[b]furan-3,3a-diol]",0.3,
"Nc1nc2cc(C[C@@H]3CC[C@@]4(O)[C@@H]3C[C@@H](n3cc(F)c5c(N)ncnc53)[C@@H]4O)cc(F)c2cc1F [Example 30, (1S,2R,3aR,4S,6aR)-4-((2-amino-3,5-difluoroquinolin-7-yl)methyl)-2-(4-amino-5-fluoro-7H-pyrrolo[2,3-d]pyrimidin-7-yl)hexahydropentalene-1,6a(1H)-diol]",0.7,
"Cc1nc(N)c2ccn([C@@H]3C[C@@H]4[C@H](Cc5ccc6cc(Cl)c(N)nc6c5)CC[C@]4(O)[C@H]3O)c2n1 [Example 31, (1S,2R,3aR,4S,6aR)-2-(4-amino-2-methyl-7H-pyrrolo[2,3-d]pyrimidin-7-yl)-4-((2-amino-3-chloroquinolin-7-yl)methyl)hexahydropentalene-1,6a(1H)-diol 2,2,2-trifluoroacetate]",0.4,
"Cc1nc(N)c2ccn([C@@H]3C[C@@H]4[C@H](Cc5ccc6cc(F)c(N)nc6c5)CC[C@]4(O)[C@H]3O)c2n1 [Example 32, (1S,2R,3aR,4S,6aR)-2-(4-amino-2-methyl-7H-pyrrolo[2,3-d]pyrimidin-7-yl)-4-((2-amino-3-fluoroquinolin-7-yl)methyl)hexahydropentalene-1,6a(1H)-diol 2,2,2-trifluoroacetate]",0.4,
"Nc1nc2cc(C[C@@H]3CC[C@@]4(O)[C@@H]3C[C@@H](n3cc(F)c5c(N)ncnc53)[C@@H]4O)ccc2cc1F [Example 33, (1S,2R,3aR,4S,6aR)-4-((2-amino-3-fluoroquinolin-7-yl)methyl)-2-(4-amino-5-fluoro-7H-pyrrolo[2,3-d]pyrimidin-7-yl)hexahydropentalene-1,6a(1H)-diol]",0.6,
"Nc1nc2cc(C[C@@H]3CC[C@@]4(O)[C@@H]3C[C@@H](n3cc(F)c5c(N)ncnc53)[C@@H]4O)ccc2cc1Cl [Example 34, (1S,2R,3aR,4S,6aR)-4-((2-amino-3-chloroquinolin-7-yl)methyl)-2-(4-amino-5-fluoro-7H-pyrrolo[2,3-d]pyrimidin-7-yl)hexahydropentalene-1,6a(1H)-diol]",0.3,
"Cc1cn([C@@H]2C[C@@H]3[C@H](Cc4cc(F)c5cc(F)c(N)nc5c4)CC[C@]3(O)[C@H]2O)c2ncnc(N)c12 [Example 35, (1S,2R,3aR,4S,6aR)-4-[(2-amino-3,5-difluoroquinolin-7-yl)methyl]-2-(4-amino-5-methyl-7H-pyrrolo[2,3-d]pyrimidin-7-yl)hexahydropentalene-1,6a(1H)-diol]",0.5,
"Cc1cn([C@@H]2C[C@@H]3[C@H](Cc4ccc5cc(F)c(N)nc5c4)CC[C@]3(O)[C@H]2O)c2ncnc(N)c12 [Example 38, (1S,2R,3aR,4S,6aR)-4-((2-amino-3-fluoroquinolin-7-yl)methyl)-2-(4-amino-5-methyl-7H-pyrrolo[2,3-d]pyrimidin-7-yl)hexahydropentalene-1,6a(1H)-diol]",0.3,
"Cc1cn([C@@H]2C[C@@H]3[C@H](Cc4ccc5cc(Cl)c(N)nc5c4)CC[C@]3(O)[C@H]2O)c2ncnc(N)c12 [Example 39, (1S,2R,3aR,4S,6aR)-4-((2-amino-3-chloroquinolin-7-yl)methyl)-2-(4-amino-5-methyl-7H-pyrrolo[2,3-d]pyrimidin-7-yl)hexahydropentalene-1,6a(1H)-diol]",0.3,
"Nc1nc2cc(C[C@@H]3CC[C@@]4(O)[C@@H]3C[C@@H](n3ccc5c(N)ncnc53)[C@@H]4O)ccc2cc1Br [Example 41, (1S,2R,3aR,4S,6aR)-4-((2-amino-3-bromoquinolin-7-yl)methyl)-2-(4-amino-7H-pyrrolo[2,3-d]pyrimidin-7-yl)hexahydropentalene-1,6a(1H)-diol 2,2,2-trifluoroacetate]",0.7,
"Nc1nc2cc(C[C@@H]3CC[C@@]4(O)[C@@H]3C[C@@H](n3cc(F)c5c(N)ncnc53)[C@@H]4O)ccc2cc1Br [Example 42, (1S,2R,3aR,4S,6aR)-4-((2-amino-3-bromoquinolin-7-yl)methyl)-2-(4-amino-5-fluoro-7H-pyrrolo[2,3-d]pyrimidin-7-yl)hexahydropentalene-1,6a(1H)-diol]",0.3,
